Measured values published in patent US20070048356A1, “Antimicrobial treatment of nonwoven materials for infection control” (priority 2005, published 2007).

Tested on: P. aeruginosa (ATCC 9027)
Test: Dynamic Shake Flask (based on ASTM E 2149-01) on treated nonwoven
Type: cell-based
Description: The test organisms are grown in 25 mL appropriate broth medium for about 24±2 hours at 37±2° C. in a wrist action shaker. The bacterial culture is then transferred by placing about 100 μL aliquot in 25 mL of broth and grown again for about 24±2 hours at 37±2° C. The organisms are then centrifuged and washed three times with phosphate buffered saline (PBS). The organisms are then suspended in PBS to obtain an inoculum of approximately 1×10^8 CFU/mL.
The test articles and control swatches are exposed to an ultraviolet light source for about 5-10 minutes per side before testing to assure that the swatches are sanitized prior to inoculation with the bacteria. The test materials are brought into contact with a known population of test bacteria from the inoculum for a specified period of time. A sample is then plated at the end of the exposure time to enumerate the surviving bacteria. The log10 reduction form the control material and the original population is calculated using the following formula: Log10 Control*−Log10 CFU/swatch Test Article=Log10 Reduction
[…] This buffer solution contains a chemical to de-activate or “neutralize” the antimicrobial agent to (a) stop the active agent from killing the organisms after the designated time period and (b) to prevent artifacts that may arise from exposing the microorganisms to the antimicrobial in solution rather than solely on the substrate. Because each chemical used as an antimicrobial agent is a little different (ie: cationic, nonionic, metal, etc), a different neutralizer was likely added in each case to shut off the antimicrobial at the desired end point of the experiment. […] The neutralizer employed may be selected from a list that is commonly used in the field. […] Testing Mat.

Substance: Polyhexamethylene biguanide [PHMB]
- Dynamic Shake Flask Log10 Reduction (Table 13, Meltblown, contact time 1 min): 4 Log10
- Dynamic Shake Flask Log10 Reduction (Table 13, Meltblown, contact time 5 min): 4 Log10
- Dynamic Shake Flask Log10 Reduction (Table 13, Meltblown, contact time 15 min): 4 Log10
- Dynamic Shake Flask Log10 Reduction (Table 13, SMS, contact time 1 min): 4 Log10
- Dynamic Shake Flask Log10 Reduction (Table 13, SMS, contact time 5 min): 4 Log10
- Dynamic Shake Flask Log10 Reduction (Table 13, SMS, contact time 15 min): 4 Log10
- Dynamic Shake Flask Log10 Reduction (Table 13, Spunbond, contact time 1 min): 4 Log10
- Dynamic Shake Flask Log10 Reduction (Table 13, Spunbond, contact time 5 min): 4 Log10
- Dynamic Shake Flask Log10 Reduction (Table 13, Spunbond, contact time 15 min): 4 Log10
- Dynamic Shake Flask Log10 Reduction (Table 18, Spunbond substrate, contact time 1 min): 0.07 Log10
- Dynamic Shake Flask Log10 Reduction (Table 18, Spunbond substrate, contact time 5 min): 0.12 Log10
- Dynamic Shake Flask Log10 Reduction (Table 18, Spunbond substrate, contact time 15 min): 0.34 Log10
- Dynamic Shake Flask Log10 Reduction (Table 20, SMS substrate, contact time 1 min): 0.07 Log10
- Dynamic Shake Flask Log10 Reduction (Table 20, SMS substrate, contact time 5 min): 0.12 Log10
- Dynamic Shake Flask Log10 Reduction (Table 20, SMS substrate, contact time 15 min): 0.34 Log10
